In patent US11932606B2, “Anti-cancer/anti-fibrosis compounds” (THE REGENTS OF THE UNIVERSITY OF CALIFORNIA, priority 2017, dated 2024) one finds IC50 data, which are given here for one molecule.

Assay in all cases: Cell viability assay (CellTiter-Glo, day 7)
Common to all, as to type: cell-based
In general terms: In ATP-based viability assays light output follows the ATP content of the culture.

The test system of experiment [1] is MCF7. The settings on record: Homo sapiens, 168 h; MCF7, day 7. As to the method:
(§1) CLL-119, Hela, HCT116, MCF7, Colo205, SW620, H2052, MSTO-211H, U-251, Colo 357, OE33, Huh-7, A549, BT474, A204 and H290 cells were acquired from UCSF Cell and Genome Engineering Core. A549-Brm3 and H2030-Brm3 were from UCSF thoracic oncology lab. All cells were plated (96-well) in triplicate at 500 cells per well for testing (n=3) with compound. Medium was changed once on day 3. On day 7, the CellTiter-Glo Luminescent Cell Viability Assay (Promega) was performed to measure the response. For cell viability assay, two independent experiments have been done.

In experiment [2] the test system is SW620. As to conditions: Homo sapiens, SW-620, 168 h; SW620, day 7. The method, then: as §1
The subject of experiment [3] is Huh-7. The settings on record: Homo sapiens, 168 h; Huh-7, day 7. As to the method: as §1
Experiment [4] concerns H290. The settings on record: NCI-H290, 168 h; H290, day 7. The method, then:
as §1

Experiment [5] has as its system Colo205. As to conditions: Homo sapiens, COLO 205, 168 h; Colo205, day 7. The method, then:
as §1

For experiment [6], the system named is BT474. The settings on record: Homo sapiens, BT-474, 168 h; BT474, day 7. As to the method: as §1
The subject of experiment [7] is A549. The settings on record: Homo sapiens, 168 h; A549, day 7. The method, then:
as §1

The test system of experiment [8] is CLL-119. The settings on record: 168 h; CLL-119, day 7. The method, then:
as §1

Experiment [9] relates to A204. The settings on record: Homo sapiens, 168 h; A204, day 7. As to the method:
as §1

The test system of experiment [10] is A549-BRM3. As to conditions: 168 h; A549-BRM3, day 7. As to the method: as §1
Experiment [11] concerns OE33. The settings on record: Homo sapiens, 168 h; OE33, day 7. The method, then:
as §1

In experiment [12] the test system is U-251. The settings on record: Homo sapiens, 168 h; U-251, day 7. As to the method: as §1
Experiment [13] has as its system Colo357. The settings on record: Homo sapiens, 168 h; Colo357, day 7. As to the method:
as §1

Experiment [14] deals with H2052. As to conditions: Homo sapiens, NCI-H2052, 168 h; H2052, day 7. As to the method:
as §1

Experiment [15] relates to HCT116. As to conditions: Homo sapiens, HCT-116, 168 h; HCT116, day 7. As to the method:
as §1

Experiment [16] concerns H2030-BRM3. As to conditions: 168 h; H2030-BRM3, day 7. The method, then:
as §1

The term IC50 denotes the point on the concentration scale where inhibition reaches its midpoint.

For the molecule `Nc1nccc2c(Br)cc3cc(C(=O)[O-])ccc3c12.[Na+]` [Compound 29, Sodium 1-amino-5-bromobenzo[h]isoquinoline-8-carboxylate], the IC50 was 1000 to 10000 nM in [1]; 1000 to 10000 nM in experiment [2]; below 1000 nM in experiment [3]; 1000 to 10000 nM in experiment [4]; below 1000 nM in experiment [5]; 1000 to 10000 nM in experiment [6]. The IC50 in [7] was 1000 to 10000 nM; in experiment [8], below 1000 nM; in experiment [9], 1000 to 10000 nM; in experiment [10], 1000 to 10000 nM; in [11], below 1000 nM; in experiment [12], 1000 to 10000 nM. Moreover, the IC50 in experiment [13] was 1000 to 10000 nM; in [14], 1000 to 10000 nM; in experiment [15], 1000 to 10000 nM; in [16], below 1000 nM.
